Measured values as given in PubChem BioAssay (NCI).
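Each compound was tested at five concentrations against cells in 96-well plates for 48 hours. GI50 is the concentration that inhibits growth by half. TGI: total growth inhibition.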

Experiments:
Assay in all cases: NCI anticancer screen, dose series, 48 h
SR leukemia = system: SR leukemia
RXF 393 renal = system: RXF 393 renal
SK-MEL-28 melanoma = system: SK-MEL-28 melanoma
OVCAR-3 ovarian = system: OVCAR-3 ovarian
MOLT-4 leukemia = system: MOLT-4 leukemia
U251 CNS = system: U251 CNS
HCC-2998 colon = system: HCC-2998 colon
NCI-H226 lung = system: NCI-H226 lung
SW-620 colon = system: SW-620 colon
UO-31 renal = system: UO-31 renal
M14 melanoma = system: M14 melanoma
KM12 colon = system: KM12 colon
SF-539 CNS = system: SF-539 CNS
CCRF-CEM leukemia = system: CCRF-CEM leukemia
MCF7 breast = system: MCF7 breast
OVCAR-8 ovarian = system: OVCAR-8 ovarian
T-47D breast = system: T-47D breast
PC-3 prostate = system: PC-3 prostate
NCI-H23 lung = system: NCI-H23 lung
SN12C renal = system: SN12C renal
BT-549 breast = system: BT-549 breast
K-562 leukemia = system: K-562 leukemia
NCI-H460 lung = system: NCI-H460 lung
HS 578T breast = system: HS 578T breast
MDA-MB-435 = system: MDA-MB-435
HOP-62 NSCLC = system: HOP-62 NSCLC
UACC-62 melanoma = system: UACC-62 melanoma
CAKI-1 renal = system: CAKI-1 renal
SNB-75 CNS = system: SNB-75 CNS
HCT-116 colon = system: HCT-116 colon
SF-295 CNS = system: SF-295 CNS
SK-MEL-5 melanoma = system: SK-MEL-5 melanoma
OVCAR-5 ovarian = system: OVCAR-5 ovarian
NCI/ADR-RES ovarian = system: NCI/ADR-RES ovarian
OVCAR-4 ovarian = system: OVCAR-4 ovarian
A549 NSCLC = system: A549 NSCLC
TK-10 renal = system: TK-10 renal
MALME-3M melanoma = system: MALME-3M melanoma
786-0 renal = system: 786-0 renal
SNB-19 CNS = system: SNB-19 CNS
HOP-92 NSCLC = system: HOP-92 NSCLC
MDA-MB-468 breast = system: MDA-MB-468 breast
ACHN renal = system: ACHN renal
A498 renal = system: A498 renal
EKVX NSCLC = system: EKVX NSCLC
SK-MEL-2 melanoma = system: SK-MEL-2 melanoma
RPMI-8226 leukemia = system: RPMI-8226 leukemia
SF-268 CNS = system: SF-268 CNS
SK-OV-3 ovarian = system: SK-OV-3 ovarian
COLO 205 colon = system: COLO 205 colon
HL-60(TB) leukemia = system: HL-60(TB) leukemia
UACC-257 melanoma = system: UACC-257 melanoma
HT29 colon = system: HT29 colon
HCT-15 colon = system: HCT-15 colon
LOX IMVI melanoma = system: LOX IMVI melanoma
NCI-H522 lung = system: NCI-H522 lung
MDA-MB-231 breast = system: MDA-MB-231 breast
IGROV1 ovarian = system: IGROV1 ovarian
DU-145 prostate = system: DU-145 prostate

CC(Nc1ncnc2ccc(-c3ccc4oc(N)nc4c3)cc12)c1ccccc1 (stereo not drawn)
GI50 (SR leukemia): 2.9 µM | TGI (SR leukemia): 10.3 µM | GI50 (RXF 393 renal): 1.98 µM | TGI (RXF 393 renal): 5.87 µM | GI50 (SK-MEL-28 melanoma): 3.54 µM | TGI (SK-MEL-28 melanoma): 15.1 µM | GI50 (OVCAR-3 ovarian): 1.67 µM | TGI (OVCAR-3 ovarian): 3.35 µM | GI50 (MOLT-4 leukemia): 2.67 µM | TGI (MOLT-4 leukemia): 10.4 µM | GI50 (U251 CNS): 2.8 µM | TGI (U251 CNS): 11.6 µM | GI50 (HCC-2998 colon): 3.59 µM | TGI (HCC-2998 colon): 15.8 µM | GI50 (NCI-H226 lung): 1.87 µM | TGI (NCI-H226 lung): 6.21 µM | GI50 (SW-620 colon): 4.42 µM | TGI (SW-620 colon): 18.9 µM | GI50 (UO-31 renal): 1.37 µM | TGI (UO-31 renal): 4.16 µM | GI50 (M14 melanoma): 4.97 µM | TGI (M14 melanoma): 42.4 µM | GI50 (KM12 colon): 4.27 µM | TGI (KM12 colon): 29 µM | GI50 (SF-539 CNS): 1.91 µM | TGI (SF-539 CNS): 4.78 µM | GI50 (CCRF-CEM leukemia): 2.34 µM | TGI (CCRF-CEM leukemia): 10.2 µM | GI50 (MCF7 breast): 1.59 µM | TGI (MCF7 breast): 3.57 µM | GI50 (OVCAR-8 ovarian): 2.96 µM | TGI (OVCAR-8 ovarian): 12.6 µM | GI50 (T-47D breast): 4.06 µM | TGI (T-47D breast): 26 µM | GI50 (PC-3 prostate): 4.52 µM | TGI (PC-3 prostate): 17.1 µM | GI50 (NCI-H23 lung): 3.53 µM | TGI (NCI-H23 lung): 14.5 µM | GI50 (SN12C renal): 2.4 µM | TGI (SN12C renal): 7.26 µM | GI50 (BT-549 breast): 2.62 µM | TGI (BT-549 breast): 11.3 µM | GI50 (K-562 leukemia): 3.89 µM | TGI (K-562 leukemia): 15.5 µM | GI50 (NCI-H460 lung): 2.34 µM | TGI (NCI-H460 lung): 5.91 µM | GI50 (HS 578T breast): 2.04 µM | TGI (HS 578T breast): 5.86 µM | GI50 (MDA-MB-435): 3.84 µM | TGI (MDA-MB-435): 19.5 µM | GI50 (HOP-62 NSCLC): 1.63 µM | TGI (HOP-62 NSCLC): 4.68 µM | GI50 (UACC-62 melanoma): 3.26 µM | TGI (UACC-62 melanoma): 11.8 µM | GI50 (CAKI-1 renal): 3.52 µM | TGI (CAKI-1 renal): 17.1 µM | GI50 (SNB-75 CNS): 1.45 µM | TGI (SNB-75 CNS): 3.61 µM | GI50 (HCT-116 colon): 2.06 µM | TGI (HCT-116 colon): 4.78 µM | GI50 (SF-295 CNS): 2.82 µM | TGI (SF-295 CNS): 12.9 µM | GI50 (SK-MEL-5 melanoma): 2.15 µM | TGI (SK-MEL-5 melanoma): 5.88 µM | GI50 (OVCAR-5 ovarian): 3.49 µM | TGI (OVCAR-5 ovarian): 18.7 µM | GI50 (NCI/ADR-RES ovarian): 3.1 µM | TGI (NCI/ADR-RES ovarian): 11.5 µM | GI50 (OVCAR-4 ovarian): 2.14 µM | TGI (OVCAR-4 ovarian): 5.16 µM | GI50 (A549 NSCLC): 2.75 µM | TGI (A549 NSCLC): 18.2 µM | GI50 (TK-10 renal): 1.57 µM | TGI (TK-10 renal): 5.51 µM | GI50 (MALME-3M melanoma): 1.7 µM | TGI (MALME-3M melanoma): 3.44 µM | GI50 (786-0 renal): 2.19 µM | TGI (786-0 renal): 8.59 µM | GI50 (SNB-19 CNS): 3.13 µM | TGI (SNB-19 CNS): 14.6 µM | GI50 (HOP-92 NSCLC): 2.02 µM | TGI (HOP-92 NSCLC): 5.62 µM | GI50 (MDA-MB-468 breast): 1.07 µM | TGI (MDA-MB-468 breast): 2.8 µM | GI50 (ACHN renal): 1.84 µM | TGI (ACHN renal): 4.92 µM | GI50 (A498 renal): 2.3 µM | TGI (A498 renal): 17.3 µM | GI50 (EKVX NSCLC): 2.73 µM | TGI (EKVX NSCLC): 18.5 µM | GI50 (SK-MEL-2 melanoma): 19.5 µM | TGI (SK-MEL-2 melanoma): 41.7 µM | GI50 (RPMI-8226 leukemia): 2.47 µM | TGI (RPMI-8226 leukemia): 13.3 µM | GI50 (SF-268 CNS): 3.91 µM | TGI (SF-268 CNS): 54.7 µM | GI50 (SK-OV-3 ovarian): 2.65 µM | TGI (SK-OV-3 ovarian): 8.56 µM | GI50 (COLO 205 colon): 5.3 µM | TGI (COLO 205 colon): > 100 µM | GI50 (HL-60(TB) leukemia): 1.87 µM | TGI (HL-60(TB) leukemia): 5 µM | GI50 (UACC-257 melanoma): 5.23 µM | TGI (UACC-257 melanoma): 39.5 µM | GI50 (HT29 colon): 4.94 µM | TGI (HT29 colon): > 100 µM | GI50 (HCT-15 colon): 2.85 µM | TGI (HCT-15 colon): 11.7 µM | GI50 (LOX IMVI melanoma): 1.62 µM | TGI (LOX IMVI melanoma): 3 µM | GI50 (NCI-H522 lung): 2.83 µM | TGI (NCI-H522 lung): 13.4 µM | GI50 (MDA-MB-231 breast): 2.59 µM | TGI (MDA-MB-231 breast): 6.92 µM | GI50 (IGROV1 ovarian): 1.45 µM | TGI (IGROV1 ovarian): 3.75 µM | GI50 (DU-145 prostate): 2.91 µM | TGI (DU-145 prostate): 15.6 µM
